Test results published in patent US20110306597A1, “Nicotinamide Derivatives” (priority 2008, published 2011).

target: human recombinant H-PGDS (Homo sapiens, UniProt O60760); assay: Fluorescence Intensity h-PGDS TBA Enzyme Assay; type: biochemical; settings: 1:175,000 human recombinant H-PGDS, highest inhibitor concentration typically 1 μM
Outline: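 Readout is PGH2 depletion: after a 42 s reaction with 5.0 μM PGH2 and 2.5 mM glutathione (pH 8.0 Tris, 10 min inhibitor preincubation), Fe(II) converts leftover PGH2 to MDA, which forms a fluorescent TBA complex. IC50s come from 11-point, 3-fold duplicate curves, 4-parameter fit.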

Chain of human recombinant H-PGDS (O60760 whole entry): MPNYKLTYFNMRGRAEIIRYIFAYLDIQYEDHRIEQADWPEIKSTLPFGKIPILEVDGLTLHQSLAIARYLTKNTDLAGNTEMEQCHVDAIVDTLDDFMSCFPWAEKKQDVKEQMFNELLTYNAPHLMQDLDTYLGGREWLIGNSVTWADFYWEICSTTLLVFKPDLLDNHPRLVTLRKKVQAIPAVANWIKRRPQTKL

| SMILES | IC50 |
| --- | --- |
| CC(C)CNC(=O)c1ccc(-c2ccccc2)nc1 [Example 378, N-Isobutyl-6-phenylnicotinamide] | 21 nM |
| O=C(NCc1ccco1)c1ccc(-c2ccccc2)nc1 [Example 379, N-(2-Furylmethyl)-6-phenylnicotinamide] | 4.79 nM |
| O=C(NCc1ccccc1F)c1ccc(-c2ccccc2)nc1 [Example 380, N-(2-Fluorobenzyl)-6-phenylnicotinamide] | 2.1 nM |
| CCCCCNC(=O)c1ccc(-c2ccccc2)nc1 [Example 381, N-Pentyl-6-phenylnicotinamide] | 7.5 nM |
| O=C(NCc1ccc(C(F)(F)F)cc1)c1ccc(-c2ccccc2)nc1 [Example 385, 6-Phenyl-N-[4-(trifluoromethyl)benzyl] nicotinamide] | 42.7 nM |
| CCOC(=O)CCCNC(=O)c1ccc(-c2ccccc2)nc1 [Example 386, Ethyl 4-{[(6-phenylpyridin-3-yl)carbonyl]amino}butanoate] | 23.2 nM |
| CC(=O)N1CCC(CNC(=O)c2ccc(-c3ccccc3)nc2)CC1 [Example 387, N-[(1-Acetylpiperidin-4-yl)methyl]-6-phenylnicotinamide] | 20.9 nM |
| CC(O)CNC(=O)c1ccc(-c2ccccc2)nc1 (centres unmarked) [Example 390, N-(2-Hydroxypropyl)-6-phenylnicotinamide] | 13 nM |
| CCOC(=O)C(CNC(=O)c1ccc(-c2ccccc2)nc1)C1CCCC1 (centres unmarked) [Example 393, Ethyl 2-cyclopentyl-3-{[(6-phenylpyridin-3-yl)carbonyl]amino}propanoate] | 1.96 nM |
| O=C(NCCCNc1ccccn1)c1ccc(-c2ccccc2)nc1 [Example 395, 6-Phenyl-N-[3-(pyridin-2-ylamino)propyl]nicotinamide] | 4.1 nM |
| CNS(=O)(=O)c1ccc(CNC(=O)c2ccc(-c3ccccc3)nc2)cc1 [Example 397, N-{4-[(Methylamino)sulfonyl]benzyl}-6-phenylnicotinamide] | 18.8 nM |
| O=C(NCC1CCCCO1)c1ccc(-c2ccccc2)nc1 (centres unmarked) [Example 399, 6-Phenyl-N-(tetrahydro-2H-pyran-2-ylmethyl) nicotinamide] | 27.6 nM |
| O=C(Nc1cccn(Cc2ccccc2)c1=O)c1ccc(-c2ccccc2)nc1 [Example 402, N-(1-Benzyl-2-oxo-1,2-dihydropyridin-3-yl)-6-phenylnicotinamide] | 8 nM |
| COC(=O)[C@H](Cc1ccc(Cl)cc1)NC(=O)c1ccc(-c2cccc(F)c2)nc1 [Example 403, Methyl 4-chloro-N-{[6-(3-fluorophenyl)pyridin-3-yl]carbonyl}phenylalaninate] | 238 nM |
| Cc1ccc(CNC(=O)c2ccc(-c3cccc(F)c3)nc2)cc1 [Example 404, 6-(3-Fluorophenyl)-N-(4-methylbenzyl)nicotinamide] | 17.4 nM |
| O=C(NCc1cccc(F)c1)c1ccc(-c2cccc(F)c2)nc1 [Example 405, N-(3-Fluorobenzyl)-6-(3-fluorophenyl)nicotinamide] | 211 nM |
| CCOC(=O)CC(NC(=O)c1ccc(-c2cccc(F)c2)nc1)c1ccccc1 (centres unmarked) [Example 406, Ethyl 3-({[6-(3-fluorophenyl)pyridin-3-yl]carbonyl}amino)-3-phenylpropanoate] | 101 nM |
| O=C(NCc1ccc(C(F)(F)F)cc1)c1ccc(-c2cccc(F)c2)nc1 [Example 409, 6-(3-Fluorophenyl)-N-[4-(trifluoromethyl)benzyl] nicotinamide] | 233 nM |
| NS(=O)(=O)c1ccc(CNC(=O)c2ccc(-c3cccc(F)c3)nc2)cc1 [Example 413, N-[4-(Aminosulfonyl)benzyl]-6-(3-fluorophenyl)nicotinamide] | 92.9 nM |
| COc1ccc(CNC(=O)c2ccc(-c3cccc(F)c3)nc2)cc1 [Example 414, 6-(3-Fluorophenyl)-N-(4-methoxybenzyl)nicotinamide] | 35.3 nM |
| COC(=O)c1ccc(CNC(=O)c2ccc(-c3cccc(F)c3)nc2)cc1 [Example 416, Methyl 4-[({[6-(3-fluorophenyl)pyridin-3-yl]carbonyl}amino)methyl] benzoate] | 44.8 nM |
| CC(C)(CNC(=O)c1ccc(-c2cccc(F)c2)nc1)N1CCOCC1 [Example 417, 6-(3-Fluorophenyl)-N-(2-methyl-2-morpholin-4-ylpropyl)nicotinamide] | 40.1 nM |
| O=C(Nc1cccnc1)c1ccc(-c2cccc(F)c2)nc1 [Example 419, 6-(3-Fluorophenyl)-N-pyridin-3-ylnicotinamide] | 3.94 nM |
| CS(=O)(=O)c1ccc(CNC(=O)c2ccc(-c3cccc(F)c3)nc2)cc1 [Example 420, 6-(3-Fluorophenyl)-N-[4-(methylsulfonyl)benzyl] nicotinamide] | 34.1 nM |
| CNS(=O)(=O)c1ccc(CNC(=O)c2ccc(-c3cccc(F)c3)nc2)cc1 [Example 424, 6-(3-Fluorophenyl)-N-{4-[(methylamino)sulfonyl]benzyl}nicotinamide] | 67.8 nM |
| CCCCCNC(=O)c1ccc(-c2cccc(F)c2)nc1 [Example 427, 6-(3-Fluorophenyl)-N-pentylnicotinamide] | 43.8 nM |
| O=C(NCc1ccco1)c1ccc(-c2cccc(F)c2)nc1 [Example 428, 6-(3-Fluorophenyl)-N-(2-furylmethyl)nicotinamide] | 40.9 nM |

More lines, in order of falling IC50, values ahead:

| IC50 | SMILES |
| --- | --- |
| 159 nM | O=C(NCCN1CCCC1)c1ccc(-c2cccc(F)c2)nc1 [Example 422, 6-(3-Fluorophenyl)-N-(2-pyrrolidin-1-ylethyl)nicotinamide] |
| 149 nM | CCOC(=O)CC(NC(=O)c1ccc(-c2cccc(F)c2)nc1)c1ccc(Cl)cc1 (centres unmarked) [Example 407, Ethyl 3-(4-chlorophenyl)-3-({[6-(3-fluorophenyl)pyridin-3-yl]carbonyl}amino)propanoate] |
| 127 nM | CCOC(=O)CC(NC(=O)c1ccc(-c2cccc(F)c2)nc1)c1ccccc1Cl (centres unmarked) [Example 411, Ethyl 3-(2-chlorophenyl)-3-({[6-(3-fluorophenyl)pyridin-3-yl]carbonyl}amino)propanoate] |
| 111 nM | CCC(C)NC(=O)c1ccc(-c2cccc(F)c2)nc1 (centres unmarked) [Example 426, N-sec-Butyl-6-(3-fluorophenyl)nicotinamide] |
| 103 nM | O=C(NCc1ccc(Br)cc1)c1ccc(-c2cccc(F)c2)nc1 [Example 408, N-(4-Bromobenzyl)-6-(3-fluorophenyl)nicotinamide] |
| 96.1 nM | O=C(CNC(=O)c1ccc(-c2cccc(F)c2)nc1)OCc1ccccc1 [Example 418, Benzyl N-{[6-(3-fluorophenyl)pyridin-3-yl]carbonyl}glycinate] |
| 86.1 nM | COc1ccc(C(CNC(=O)c2ccc(-c3ccccc3)nc2)N2CCOCC2)cc1 (centres unmarked) [Example 400, N-[2-(4-Methoxyphenyl)-2-morpholin-4-ylethyl]-6-phenylnicotinamide] |
| 46.8 nM | CSc1ccc(CNC(=O)c2ccc(-c3cccc(F)c3)nc2)cc1 [Example 412, 6-(3-Fluorophenyl)-N-[4-(methylthio)benzyl] nicotinamide] |
| 39.8 nM | O=C(NCc1ccc(Cl)cc1)c1ccc(-c2cccc(F)c2)nc1 [Example 410, N-(4-Chlorobenzyl)-6-(3-fluorophenyl)nicotinamide] |
| 39.6 nM | CCOC(=O)CC(NC(=O)c1ccc(-c2ccccc2)nc1)c1ccccc1Cl (centres unmarked) [Example 384, ethyl 3-(2-Chlorophenyl)-3-{[(6-phenylpyridin-3-yl)carbonyl]amino}propanoate] |
| 31.1 nM | CCOC(=O)CC(NC(=O)c1ccc(-c2ccccc2)nc1)c1ccc(Cl)cc1 (centres unmarked) [Example 401, Ethyl 3-(4-chlorophenyl)-3-{[(6-phenylpyridin-3-yl)carbonyl]amino}propanoate] |
| 24.5 nM | CCCCNC(=O)c1ccc(-c2cccc(F)c2)nc1 [Example 415, N-Butyl-6-(3-fluorophenyl)nicotinamide] |
| 24.4 nM | CCOC(=O)CC(NC(=O)c1ccc(-c2ccccc2)nc1)c1ccccc1 (centres unmarked) [Example 394, Ethyl 3-phenyl-3-{[(6-phenylpyridin-3-yl)carbonyl]amino}propanoate] |
| 23.9 nM | O=C(NCCN1CCOCC1)c1ccc(-c2ccccc2)nc1 [Example 389, N-(2-Morpholin-4-ylethyl)-6-phenylnicotinamide] |
| 16.5 nM | O=C(NC1CCN(Cc2ccc(Cl)c(Cl)c2)C1=O)c1ccc(-c2ccccc2)nc1 (centres unmarked) [Example 383, N-[1-(3,4-Dichlorobenzyl)-2-oxopyrrolidin-3-yl]-6-phenylnicotinamide] |
| 15.7 nM | CN1CCC(CCNC(=O)c2ccc(-c3ccccc3)nc2)CC1 [Example 388, N-[2-(1-Methylpiperidin-4-yl)ethyl]-6-phenylnicotinamide] |
| 9.1 nM | O=C(NCCN1CCN(Cc2ccccc2)CC1)c1ccc(-c2ccccc2)nc1 [Example 382, N-[2-(4-Benzylpiperazin-1-yl)ethyl]-6-phenylnicotinamide] |
| 8.76 nM | CC(NC(=O)c1ccc(-c2cccc(F)c2)nc1)c1ccccc1 (centres unmarked) [Example 423, 6-(3-Fluorophenyl)-N-(1-phenylethyl)nicotinamide] |
| 7.37 nM | O=C(Nc1ccccc1)c1ccc(-c2cccc(F)c2)nc1 [Example 421, 6-(3-Fluorophenyl)-N-phenylnicotinamide] |
| 3.3 nM | Cc1cc(Br)ccc1NC(=O)c1ccc(-c2ccccc2)nc1 [Example 398, N-(4-Bromo-2-methylphenyl)-6-phenylnicotinamide] |
| 3 nM | CCOC(=O)CC[C@H](NC(=O)c1ccc(-c2ccccc2)nc1)C(=O)OCC [Example 396, Diethyl N-[(6-phenylpyridin-3-yl)carbonyl]-L-glutamate] |
| 1.12 nM | Cc1cccc(NC(=O)c2ccc(-c3ccccc3)nc2)c1 [Example 392, N-(3-Methylphenyl)-6-phenylnicotinamide] |
| 0.906 nM | CCn1c(CCNC(=O)c2ccc(-c3ccccc3)nc2)nc2cc(C(=O)NCCOC)ccc21 [Example 391, 1-Ethyl-N-(2-methoxyethyl)-2-(2-{[(6-phenylpyridin-3-yl)carbonyl]amino}ethyl)-1H-benzimidazole-5-carboxamide] |
